Measurements: patent US20250215016A1, “ISOXAZOLE-HETEROCYCLIC DERIVATIVE, PHARMACEUTICAL COMPOSITION AND USE” (SHANGHAI SIMR BIOTECHNOLOGY CO., LTD, priority 2022, published 2025)

Experiments:
[1] = target: human α2β3γ2 receptor (α2-GABAA receptor) (Homo sapiens (Human), UniProt P18507+P47869); assay: Radioligand (3H-flunitrazepam) competition binding assay, BZD site; α2 vs α5 binding selectivity; settings: ratio of Ki at α2β3γ2 to Ki at α5β3γ2
Source text: (§1) α, β and γ subunits are essential for the formation of a complete functional GABAA receptor. In this example, HEK293 cell strains stably expressing human α5-GABAA receptor (comprising α5β3γ2 subunit) and α2-GABAA receptor (comprising α2β3γ2 subunit) were constructed and screened, respectively, by liposome transfection method (Felgner, P. L., et al., Proceedings of the National Academy of Sciences, 1987, 84:7413-7417). The specific subunit protein sequences are as follows: α5 subunit (protein sequence can be found in GenBank accession number: NM_000810.3); α2 subunit (protein sequence can be found in GenBank accession number: NM_000807.4); β3 subunit (protein sequence can be found in GenBank accession number: NM_000814.5); γ2 subunit (protein sequence can be found in GenBank accession number: NM_000816.3).
(§2) The above cell lines were subcultured. Amplification of α5β3γ2-HEK293 and α2β3γ2-HEK293 cells was used to test the affinity of the compounds to benzodiazepine site (BZD) of the GABAA receptor. During the passage of α5β3γ2-HEK293 cells, some of the suspended cells were spread on a glass slide pretreated with Poly-D-Lysine for electrophysiological testing.
(§3) Flunitrazepam is a non-specific reagent that binds to the BZD site efficiently. The affinity of the compounds to the BZD sites of the human α5β3γ2 and α2β3γ2 receptors can be determined by competing the compound with ^3H-flunitrazepam (isotope ^3H-labeled flunitrazepam) for binding to these two receptors.
(§4) Membrane preparation: HEK293 cells stably expressing human α5β3γ2 receptor or α2β3γ2 receptor were collected, suspended in 50 mM Tris-HCl buffer (pH=7.4), homogenized on ice by a homogenizer for 20 seconds 10 times, and centrifuged at 4° C., 1000 g for 10 min. The supernatant was collected, and the above steps were repeated. The supernatant was centrifuged (33800 g; centrifuge purchased from Thermo, rotor model: A27-8×50) at 4° C. for 60 min, and the precipitate was resuspended in Tris buffer (50 mM Tris-HCl, 10 mM MgCl2, 0.5 mM EDTA, 10% glycerol). The precipitate was the cell membrane. Protein content was determined by BCA (Bicinchoninic Acid) method (BCA kit from Pierce (Annoron)). The cell membrane was prepared into 1 ml aliquot and stored at −80° C.
(§5) Radioligand competition binding assay: the assay was carried out in a 200 μL system (96-well plate from Agilent) with 100 μL of cell membrane. The concentration of ^3H-flunitazepam (from PerkinElmer, lot: NET567250 UC) was 1 nM and the concentration of test compound was in the range 1×10^−5-10^−6 M. Flumazenil (from Tocris; lot: 1318) was used as a control. 1 μL of 2 mM flumazenil (final concentration 10 μM) was added to the Low signal control well (Low control, LC) and 1 μL of DMSO (from Sigma aldrich, lot: 472301) was added to the High signal control well (High control, HC). The final target membrane protein concentration was 5 μg/well. All test compound sample stocks were 10 mM DMSO solutions. The working concentration of the samples is to dilute all samples with DMSO to 0.2 mM, and then perform 4-fold continuous gradient dilution for a total of 8 concentration gradients. The 96-well plate was sealed with a plate sealing membrane and then incubated on a shaker at room temperature for 1 hour. Meanwhile, GF/C filter plate was soaked with a plate soaking buffer (0.3% PEI, polyethyleneimine, purchased from Sigma aldrich, model: P314, stored at 4° C.) for at least 0.5 hours. After completion of binding incubation, the cells were collected with a cell collector onto the GF/C filter plate and washed four times with a plate washing buffer (50 mM Tris-HCl, pH 7.4, stored at 4° C.). […]

[2] = target: human α5β3γ2 receptor (α5-GABAA receptor) (Homo sapiens (Human), UniProt P18507+P31644); assay: Radioligand (3H-flunitrazepam) competition binding assay, BZD site; settings: 3H-flunitrazepam 1 nM; HEK293 membranes expressing human α5β3γ2
Source text: as §1, §2, §3, §4, §5

α5-GABAA receptor = α5-GABAA receptor (Homo sapiens (Human), UniProt P18507+P31644); assay: Whole-cell patch clamp electrophysiology, inverse regulation activity in α5β3γ2-HEK293 cells; type: cell-based; settings: compound 100 nM; GABA 0.05-0.06 μM (about EC7-8); clamped at −60 mV; read-out: Inverse regulation efficiency to α5-GABAA receptor
Source text: α, β and γ subunits are essential for the formation of a complete functional GABAA receptor. […] The specific subunit protein sequences are as follows: α5 subunit (protein sequence can be found in GenBank accession number: NM_000810.3); α2 subunit (protein sequence can be found in GenBank accession number: NM_000807.4); β3 subunit (protein sequence can be found in GenBank accession number: NM_000814.5); γ2 subunit (protein sequence can be found in GenBank accession number: NM_000816.3).
as §2
The inverse regulation activity of the test drugs on α5-GABAA receptor was detected by an electrophysiological method. The specific method was as follows:
Compound concentration setting: the final concentration of the compounds used for compound screening was 100 nM. GABA concentration was 0.05-0.06 μM (about EC7-8). […] The extracellular fluid (ECS) ingredients for electrophysiology were as follows: 150 mM NaCl, 5 mM KCl, 2.5 mM CaCl2, 1 mM MgCl2, 10 mM HEPES and 10 mM glucose (pH 7.4); the electrode internal solution (ICS) formula for electrophysiology was as follows: 140 mM CsCl, 11 mM EGTA, 10 mM HEPES, 2 mM CaCl2, 1 mM MgCl2, 4 mM MgATP, 2 mM TEA (pH 7.3). The above reagents were all purchased from Sigma aldrich. GABA (γ-aminobutyric acid, from sigma aldrich, lot: A5385) powder was prepared into a stock solution with pure water and then diluted in ECS. The compound was first prepared into a 4 mM stock solution with DMSO, and then gradually diluted in corresponding concentrations of GABA-ECS. The solutions were all prepared fresh prior to electrophysiological testing.
Electrophysiological signal acquisition were performed by using EPC 10 amplifier and PatchMaster software (HEKA) or Axon 700 B amplifier and Clampex software (AXON). The recording electrode was made by drawing borosilicate glass (purchased from sutter), and has an electrode resistance of 4˜6 MΩ. Extracellular administration was carried out using ALA-VC-8PG (purchased from ALA, USA) system. A single independently grown cell was selected, and lysis was performed after the glass electrode and the cell forming a good seal, to form a whole cell mode. With the cellular membrane potential clamped at −60 mV, recording was carried out in the Gap-free mode. For the test, extracellular fluid was first applied extracellularly for about 20 seconds. After baseline (Iprebaseline) was stabilized, the extracellular fluid was switched to GABA-ECS. At this time, the current (Igaba) caused by GABA can be detected. At about 20-40 seconds, after the current stabilized, the extracellular fluid was switched to a mixed solution of the compound and GABA-ECS, until the current (Itreatment) caused by both the compound and GABA can be detected. Finally, the solution was switched to the extracellular fluid and the test was terminated after recording for 20-40 seconds.
The experimental results were analyzed using PatchMaster v2x90.1 or PatchMaster v2x90.3 software (EPC 10 amplifier) and Clampex10.6 software (Axon700B amplifier). The current value of each stage was calculated according to the average value of the stabilized current under the corresponding conditions. We defined the control current as Igaba−Iprebaseline, and the current after compound treatment as Itreatment−Iprebaseline. The inverse regulation activity of the compounds is expressed as a percentage and is calculated according to the following formula: Inverse regulation efficiency=[(Itreatment−Igaba)/(Igaba−Iprebaseline)]×100%.

[3] = Stability in simulated gastric fluid (SGF); type: physicochemical; settings: 37° C., 1000 rpm
Protocol: Simulated gastric fluid (SGF), Manufacturer: Dongguan Chuangfeng Automation Technology Co., Ltd.; Product model: CF-006.
Oscillating constant temperature metal bath, Model: Thermo; Manufacturer: Digital Skaking Drybath.
Temperature: 37° C.; rotating speed: 1000 rpm; sampling time: 0, 4 hours.
Chromatographic column: Welch Xtimate C18 3.0×100 mm, 5 μm. Mobile phase: A: 0.04% trifluoroacetic acid (TFA)/H2O (v/v), B: acetonitrile (ACN). Gradient elution was performed according to the following table, flow rate: 1.0 mL/min; injection volume: 5 μL; column temperature: 35° C.; wavelength: 254 nm.
• (a) preparation of 0.04% TFA/H2O: 400 μL of TFA was measured, placed into 1 L of H2O, and homogenously mixed; • (b) Sample stock solution: about 3 mg of test sample was weighed, and prepared into a stock solution of 10 mmol/L using DMSO; • (c) 50 μL of the sample stock solution was taken, placed into a 5 mL volumetric flask, made up to the scale with the addition of SGF, and homogenously mixed. 400 μL of the solution was taken, four samples in parallel, and shaken at 1000 rpm and 37° C.; • (d) every two samples were taken after 0 and 4 hours respectively, 400 μL of acetonitrile was added, and homogenously mixed, followed by liquid phase injection, and calculation of the change % of the main peak area in the solution after 4 hours relative to 0 hour, two average value reports being taken at each time point.

Row | SMILES | Selectivity α2 ki/α5 ki [1] [folds] | Ki [2] [nM] | inhibition at 0.1 µM (α5-GABAA receptor) [%] | Residual content in simulated gastric juice after 4 hours (compared with 0 hour content) [3]
1 | Cc1onc(-c2ccc(F)cc2)c1COc1cnc(N2CCN3CCOC[C@@H]3C2)cn1 [Compound 40, (S)-8-(5-((3-(4-fluorophenyl)-5-methylisoxazol-4-yl)methoxy)pyrazin-2-yl) octahydropyrazino [2,1-c][1,4]oxazine] | – | 21.8 | 18 | 98% (4 hours)
2 | Cc1onc(-c2ccc(F)cc2)c1COc1cnc(N2CCn3ccnc3C2)cn1 [Compound 48, 4-(((5-(5,6-dihydroimidazo [1,2-a]pyrazin-7(8H)-yl)pyrazin-2-yl)oxy)methyl)-3-(4-fluorophenyl)-5-methylisoxazole] | – | 68.5 | 25 | 88% (4 hours)
3 | COc1ncc(-c2ccc(OCc3c(C)nnn3-c3ccc(C(F)F)cc3)nn2)cn1 [WO2020016443A1, Example 3, reference compound] | 14.5 | – | – | –
4 | Cc1ncc(-c2ccc(OCc3c(C)nnn3-c3ccc(C(F)F)cc3)nn2)o1 [WO2020016443A1, Example 6, reference compound] | 13.2 | – | – | –
5 | Cc1nnn(-c2ccc(C(F)F)cc2)c1COc1ccc(-n2cnc(C(F)F)c2)nn1 [WO2020016443A1, Example 15, reference compound] | 7.67 | – | – | –

The remaining compounds from weak to strong by Ki [2], led by results:

Row | Selectivity α2 ki/α5 ki [1] [folds] | Ki [2] [nM] | inhibition at 0.1 µM (α5-GABAA receptor) [%] | Residual content in simulated gastric juice after 4 hours (compared with 0 hour content) [3] | SMILES
6 | 109 | 11.2 | 45 | – | Cc1onc(-c2ccc(F)cc2)c1COc1ccc(-c2nnc3n2CCCOC3)cn1 [Compound 20, 3-(6-((3-(4-fluorophenyl)-5-methylisoxazol-4-yl)methoxy)pyridin-3-yl)-6,7-dihydro-5H,9H-[1,2,4]triazolo[3,4-c][1,4]oxazepane]
7 | – | 8.63 | 49 | 82% (4 hours) | Cc1onc(-c2ccc(F)cc2)c1COc1ccc(-n2nnc3c2CCOC3)cn1 [Compound 50, 1-(6-((3-(4-fluorophenyl)-5-methylisoxazol-4-yl)methoxy)pyridin-3-yl)-1,4,6,7-tetrahydropyran[3,4-d][1,2,3]triazole]
8 | – | 4.93 | 35 | 83% (4 hours) | Cc1onc(-c2ccc(F)cc2)c1COc1cnc(-c2nnc3n2CCCC3)cn1 [Compound 32, 3-(4-fluorophenyl)-5-methyl-4-(((5-(5,6,7,8-tetrahydro-[1,2,4]triazolo[4,3-a]pyridin-3-yl)pyrazin-2-yl)oxy)methyl)isoxazole]
9 | – | 3.84 | 37 | 31% (4 hours) | Cc1onc(-c2ccc(F)cc2)c1COc1ccc(N2CCN3CCOC[C@@H]3C2)nn1 [Compound 49, (S)-8-[6-((3-(4-fluorophenyl)-5-methylisoxazol-4-yl)methoxy)pyridazin-3-yl] octahydropyrazino[2,1-c][1,4]oxazine]
10 | – | 3.09 | 21 | 87% (4 hours) | Cc1cn2c(n1)CN(c1cnc(OCc3c(-c4ccc(F)cc4)noc3C)cn1)CC2 [Compound 46, 3-(4-fluorophenyl)-5-methyl-4-(((5-(2-methyl-5,6-dihydroimidazo [1,2-a]pyrazin-7(8H)-yl)pyrazin-2-yl)oxy)methyl)isoxazole]
11 | – | 0.99 | 36 | 94% (4 hours) | Cc1onc(-c2ccc(F)cc2)c1COc1cnc(-c2cnn3c2COCC3)cn1 [Compound 44, 3-(5-((3-(4-fluorophenyl)-5-methylisoxazol-4-yl)methoxy)pyrazin-2-yl)-6,7-dihydro-4H-pyrazolo[5,1-c][1,4]oxazine]
